Consider ten molecules from paper PMC4824452, “Substrate complexes of human dipeptidyl peptidase III reveal the mechanism of enzyme inhibition” (Scientific Reports, 2016).

The target of assay [1] is T1, active smFRET construct of hDPP III (still containing residue Glu-451) (Homo sapiens, UniProt Q9NY33, C19S/C519S/C654S/E207C/S491C).
T1 construct: His6-tag with TEV protease cleavage site (N, cleaved yes); made in house; host or cells: E. coli BL21-CodonPlus (DE3) RIL
T1 sequence (Q9NY33 1-726 C19S/E207C/S491C/C519S/C654S limits assumed): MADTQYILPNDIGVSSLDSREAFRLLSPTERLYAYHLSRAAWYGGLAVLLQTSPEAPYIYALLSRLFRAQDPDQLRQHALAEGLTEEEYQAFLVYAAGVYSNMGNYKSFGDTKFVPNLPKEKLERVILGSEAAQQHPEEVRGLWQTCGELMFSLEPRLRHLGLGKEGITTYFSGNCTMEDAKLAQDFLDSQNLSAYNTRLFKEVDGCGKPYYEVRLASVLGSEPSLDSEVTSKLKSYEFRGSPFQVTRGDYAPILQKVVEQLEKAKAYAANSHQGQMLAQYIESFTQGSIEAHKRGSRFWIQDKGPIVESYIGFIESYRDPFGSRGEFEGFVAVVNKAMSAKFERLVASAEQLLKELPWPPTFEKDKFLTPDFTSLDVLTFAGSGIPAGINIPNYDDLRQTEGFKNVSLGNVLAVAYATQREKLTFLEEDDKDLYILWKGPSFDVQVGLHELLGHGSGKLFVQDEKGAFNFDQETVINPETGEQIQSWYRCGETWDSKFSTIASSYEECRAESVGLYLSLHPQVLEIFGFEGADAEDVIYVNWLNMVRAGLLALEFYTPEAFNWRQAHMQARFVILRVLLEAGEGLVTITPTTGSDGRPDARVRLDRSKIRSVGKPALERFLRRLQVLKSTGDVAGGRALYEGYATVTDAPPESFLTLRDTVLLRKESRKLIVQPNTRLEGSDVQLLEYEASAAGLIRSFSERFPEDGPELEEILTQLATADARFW
As to the kind of experiment: Fluorometric activity assay, release of β-naphthylamine, active smFRET construct. Conditions: active smFRET construct 50 pM; substrate 1 μM to 200 μM; 37 °C, 50 mM Tris-HCl pH 8.0, 100 mM NaCl; fluorescence ex 320 nm, em 420 nm. In kind it is biochemical. As for the experimental part:
(§1) The enzymatic activities of the wild-type enzyme and the active smFRET construct (still containing residue Glu-451) were determined using a fluorometric assay, which measures the release of β-naphthylamine upon cleavage of the synthetic substrate Arg-Arg-β-naphthylamide (excitation at 320 nm and emission at 420 nm)[41]. Kinetic parameters were determined at 37 °C in 50mM Tris-HCl buffer pH 8.0, containing 100 mM NaCl. The protein concentrations were 20 pM (wild-type enzyme) and 50 pM (smFRET construct). The substrate concentration was varied from 1 μM to 200 μM. The initial rate of fluorescence increase was monitored continuously for 5 min and was converted into the velocity of the reaction using a calibration curve for β-naphthylamine. Non-linear regression using the program GraphPad Prism (www.graphpad.com) yielded the values for vmax and KM.

Assay [2] concerns the target T2, hDPP III, wild-type enzyme (Homo sapiens, UniProt Q9NY33).
T2 sequence (Q9NY33 1-737): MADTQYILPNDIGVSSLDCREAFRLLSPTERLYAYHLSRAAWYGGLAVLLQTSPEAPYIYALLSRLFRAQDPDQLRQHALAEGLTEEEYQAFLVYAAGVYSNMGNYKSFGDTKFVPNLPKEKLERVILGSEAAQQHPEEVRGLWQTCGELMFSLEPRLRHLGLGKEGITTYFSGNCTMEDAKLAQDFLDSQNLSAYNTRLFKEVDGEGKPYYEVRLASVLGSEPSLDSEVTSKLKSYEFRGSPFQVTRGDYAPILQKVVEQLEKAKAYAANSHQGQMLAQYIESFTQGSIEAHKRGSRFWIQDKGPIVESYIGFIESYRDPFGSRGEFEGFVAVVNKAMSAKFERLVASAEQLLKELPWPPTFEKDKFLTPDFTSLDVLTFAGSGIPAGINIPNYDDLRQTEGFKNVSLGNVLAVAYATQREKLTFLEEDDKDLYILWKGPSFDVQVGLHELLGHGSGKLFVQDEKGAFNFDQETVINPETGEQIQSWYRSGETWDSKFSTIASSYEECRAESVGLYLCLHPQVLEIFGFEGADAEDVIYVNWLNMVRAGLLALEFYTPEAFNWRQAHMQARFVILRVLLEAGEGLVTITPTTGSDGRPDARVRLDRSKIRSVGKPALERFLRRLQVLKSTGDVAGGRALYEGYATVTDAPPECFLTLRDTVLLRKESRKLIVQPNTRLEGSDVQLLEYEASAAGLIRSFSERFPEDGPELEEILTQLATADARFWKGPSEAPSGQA
Put plainly: Fluorometric activity assay, release of β-naphthylamine, wild-type enzyme. Conditions: wild-type enzyme 20 pM; substrate 1 μM to 200 μM; 37 °C, 50 mM Tris-HCl pH 8.0, 100 mM NaCl; fluorescence ex 320 nm, em 420 nm. The class given is biochemical. As for the experimental part: as §1

The test system of the next assay is rat DPP III. Also on record: method as in PMID 12895665. Particulars: cited from earlier work.
Another assay concerns human DPP III. Conditions: cited from earlier work.
In assay [3] the test system is hDPP III. On the set-up: method as in 2 sources, ref 22 = [22]; PMID 10822105; doi:10.1016/s0196-9781(00)00174-1; Yamamoto Y. , Hashimoto J. , Shimamura M. , Yamaguchi T. & Hazato T. Characterization of tynorphin, a potent endogenous inhibitor of dipeptidyl peptidaseIII . Peptides 21 , 503 – 508 ( 2000 ). 1082210 ||| ref 1 = [1]; PMID 21794094; doi:10.1111/j.1742-4658.2011.08275.x; Prajapati S. C. & Chauhan S. S. Dipeptidyl peptidase III: a multifaceted oligopeptide N-end cutter . FEBS J. 278 , 3256 – 3276 ( 2011 ). 21794094 10.1111/j.1742-4658.2011.08275.x. Particulars: cited from earlier work.

In assay [4] the test system is hDPP III. Particulars: cited from earlier work. From the text: The octapeptide angiotensin-II (DRVYIHPF) is a potent vasoconstrictor and is involved in regulating mammalian blood pressure.
In assay [5] the test system is partially purified DPP III from monkey brain. Also on record: method as in PMID 10822105. Particulars: cited from earlier work.
In another assay the target is inactive hDPP3 variant. On the set-up: method as in PMID 22493238. Conditions: cited from earlier work.
For assay [6], the target named is hDPP3(1-726) E451A, inactive hDPP III variant used for ITC (human) (UniProt Q9NY33). Put plainly: ITC; 800 μM angiotensin II in the syringe into 40 μM enzyme in the cell; 25 °C; 50 mM Tris-HCl pH 8.0, 100 mM NaCl; one-binding-site model. On the technique in general: In ITC the heat of successive injections is recorded.
Assay [7] has as its target T3, human dipeptidyl peptidase III (1-726), inactive E451A variant, smFRET construct (C19S, C519S, C654S, E207C, … (human, UniProt Q9NY33 1-726, E451A | C19 exchanged to serine | C519 exchanged to serine | C654 exchanged to …)).
T3 construct: human dipeptidyl peptidase III, residues 1-726 (lacks 11 C-terminal residues), with E451A and five surface exchanges made for smFRET; Vector pET28-MHL; His6-tag removed with TEV protease, so residues of the cleavage site may remain at the N-terminus; also called hDPP III; hDPP3; source: E. coli BL21-CodonPlus (DE3) RIL, purified (Ni-NTA, ResourceQ anion exchange, TEV cleavage, Superdex 200); not …
T3 sequence (looked up): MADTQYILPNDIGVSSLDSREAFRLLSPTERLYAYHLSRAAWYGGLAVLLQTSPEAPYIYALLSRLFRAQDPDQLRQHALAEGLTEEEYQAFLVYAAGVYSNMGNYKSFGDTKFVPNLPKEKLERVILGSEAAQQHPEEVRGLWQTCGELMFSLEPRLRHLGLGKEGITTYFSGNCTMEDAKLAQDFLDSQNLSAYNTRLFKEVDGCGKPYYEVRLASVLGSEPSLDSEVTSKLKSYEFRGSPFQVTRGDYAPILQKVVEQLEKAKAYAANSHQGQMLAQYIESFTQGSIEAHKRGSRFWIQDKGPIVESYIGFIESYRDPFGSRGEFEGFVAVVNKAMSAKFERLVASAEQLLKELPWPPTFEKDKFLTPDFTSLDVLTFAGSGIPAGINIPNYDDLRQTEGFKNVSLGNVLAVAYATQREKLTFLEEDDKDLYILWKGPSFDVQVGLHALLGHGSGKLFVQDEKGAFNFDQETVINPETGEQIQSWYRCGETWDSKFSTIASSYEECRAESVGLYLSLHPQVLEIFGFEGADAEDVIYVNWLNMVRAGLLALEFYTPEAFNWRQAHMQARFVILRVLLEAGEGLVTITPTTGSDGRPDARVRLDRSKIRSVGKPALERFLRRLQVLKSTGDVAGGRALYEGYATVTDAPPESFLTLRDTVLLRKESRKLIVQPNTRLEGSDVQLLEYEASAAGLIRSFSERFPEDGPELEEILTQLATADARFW
Put plainly: crystal structure; co-crystallisation; protein 8 mg mL^-1, protein:ligand about 1:30, sitting drop vapour diffusion at 20 °C, microseeding with crystals of the angiotensin II complex. Conditions: both partners purified.

The Km is the concentration of substrate that gives half-maximal velocity. By kcat is commonly meant the number of substrate molecules converted per active site and unit of time at saturation. The Kd is the concentration at which binding is half-saturated.

For “Arg-Arg-β-naphthylamide [synthetic substrate releasing β-naphthylamine upon cleavage]”, in [1], the Km worked out at 30 µM and the kcat came out at 28 s⁻¹. Moreover, in [2], the Km was 24 µM and the kcat is 24 s⁻¹.
For IVYPW, in the assay on rat DPP III (compared with tynorphin, presumably ref 23), the “relative inhibitory strength (in words)” value was “a stronger inhibitor than tynorphin”. Also, the “inhibition (in words)” value in the assay with rat DPP III (rat DPP III) is reported as “nanomolar affinity”. For the same molecule, the “inhibition of the enzyme (in words)” value in the assay on human DPP III is reported as “described as an inhibitor of the enzyme”.
With “VVYPW [tynorphin, synthetic opioid peptide, a derivative of spinorphin]”, the “period over which the peptide appears to be hydrolysed” value in the assay on hDPP III [3] is recorded as “about 24 hours”. Also, the “inhibition of human DPP III (in words)” value in the assay with human DPP III is reported as “described as an inhibitor of human DPP III”. Also, in the assay with hDPP III [4], the “character of binding (thermodynamic, in words)” value was “endothermic process driven by entropic changes”. In addition, in assay [5], the “inhibition (in words)” value is “shown to inhibit partially purified DPP III from monkey brain”.
For the molecule “YGGFL [Leu-enkephalin, endogenous opioid neurotransmitter (YGGFL)]”, in the assay on hDPP III [3], the “cleavage by hDPP III (in words)” value is “shown to be cleaved by hDPP III” and the “in vitro substrate of hDPP III (in words)” value (“in vitro substrate” for short) is “known in vitro substrates of hDPP III”. Besides, on inactive hDPP3 variant, the Kd is 3600 nM.
In the case of “YGGFM [Met-enkephalin, endogenous opioid neurotransmitter (YGGFM)]”, in the assay on hDPP III [3], the “cleavage by hDPP III (in words)” value is “shown to be cleaved by hDPP III” and the “in vitro substrate” value is “known in vitro substrates of hDPP III”.
For “YPFF-NH2 [endomorphin-2, opioid peptide with amidated C-terminus]”, the “in vitro substrate” value in the assay on hDPP III [3] is reported as “known in vitro substrates of hDPP III”.
In assay [6], angiotensin-II (peptide) displayed a Kd of 1640 nM and a dH of 3.64 kcal/mol.

B1: Met-enkephalin (peptide)
peptide: YGGFM
notes: Met-enkephalin, endogenous opioid pentapeptide cut from proenkephalin-A; also called YGGFM
In the case of B1, the binding result in assay [7] is on record as “binds”.

B2: Leu-enkephalin (peptide)
peptide: YGGFL
notes: Leu-enkephalin, endogenous opioid pentapeptide cut from proenkephalin-A (also held in prodynorphin); also called YGGFL
As to B2, the binding result in assay [7] is given as “binds”.

B3: synthetic opioid peptide IVYPW (peptide)
peptide: IVYPW
notes: synthetic opioid peptide, similar to tynorphin (VVYPW), a derivative of spinorphin
B3: in assay [7], the binding result was “binds”.
